Experimental data taken from EP4755881A1 (Wuhan Createrna Science and Technology Co., Ltd., priority 2023, dated 2025).

The compounds below were run against hLPAR1 (human lysophosphatidic acid receptor 1, Accession No.: NM_001401.4) (Homo sapiens, UniProt Q92633) (assay: cell-based). Conditions: LPAR1 inhibitory activity IC50, Table 1; FLIPR method, CHO-K1 cells overexpressing hLPAR1.
Protocol: The antagonist properties of the compounds in the present disclosure were determined using the FLIPR (Fluorometric Imaging Plate Reader) method in CHO-K1 cells (Chinese Hamster Ovary cells K1, ATCC) overexpressing hLPAR1 (human lysophosphatidic acid receptor 1, Accession No.: NM_001401.4).
CHO-K1 cells stably expressing hLPAR1 were placed in a cell culture incubator at 37°C with 5% CO2 and cultured in F-12 medium containing 10% FBS (fetal bovine serum, Gibco, 10099-141), 1% penicillin-streptomycin (Gibco, 15140-122), and 0.4 mg/mL Hygromycin B (Gibco, 10687010). 18-24 hours before the FLIPR experiment, the cells were seeded into a 96-well plate at a density of 250,000 cells/mL (25,000 cells/well) and incubated overnight in the cell culture incubator. On the day of the experiment, the medium was removed, and the cells were washed with FLIPR buffer (2.5 mM probenecid (Thermo, P36400), 1.3 mM CaCl2, 3.3 mM Na2CO3, 1 mM MgSO4, 20 mM HEPES (Invitrogen, 15630080), 1× HBSS (Invitrogen, 14065056), 0.1% BSA (BioSharp, 70080030)). 75 µL of […] Fluo-4 AM fluorescent dye (Thermo, F14202) was added to each well and incubated for 1.0 hour at 37°C for dye loading. The 96-well plate was then washed once with buffer, and 50 µL of buffer containing the test compound or vehicle was added to each well, followed by incubation at room temperature for 30 min. The cell plate was then placed into the FLIPR for baseline fluorescence measurement (excitation wavelength at 485 nm, emission wavelength at 525 to 535 nm). Subsequently, 50 µL/well of agonist (final concentration 1 µM oleoyl-L-α-lysophosphatidic acid sodium salt (Sigma, L7260)) or vehicle (ultrapure water) was added, and fluorescence values were measured at 1-second intervals for 2 min. Finally, the output fluorescence counts were analyzed using GraphPad Prism 9.0 software log(inhibitor) vs. response--Variable slope (four parameters) equation to calculate IC50 values.
Table 1: Inhibitory activity data of compounds against LPAR1

Chain of hLPAR1 (human lysophosphatidic acid receptor 1, Accession No.: NM_001401.4) (Q92633 whole entry): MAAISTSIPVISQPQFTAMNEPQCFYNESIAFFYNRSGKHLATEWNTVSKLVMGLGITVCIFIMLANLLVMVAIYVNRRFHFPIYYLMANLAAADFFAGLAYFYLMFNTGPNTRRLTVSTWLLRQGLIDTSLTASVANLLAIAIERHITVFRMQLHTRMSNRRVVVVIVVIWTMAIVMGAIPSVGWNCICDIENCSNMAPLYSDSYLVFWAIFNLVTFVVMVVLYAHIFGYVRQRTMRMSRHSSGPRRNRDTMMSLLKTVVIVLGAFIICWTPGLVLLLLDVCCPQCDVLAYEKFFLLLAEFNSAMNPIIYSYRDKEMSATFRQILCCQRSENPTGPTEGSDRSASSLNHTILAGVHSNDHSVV

| Structure (SMILES) | IC50 [nM] |
| --- | --- |
| Cc1nc(-c2nnn(C)c2NC(=O)O[C@H](C)CC(C)(F)F)ccc1C#C[C@@H]1CCC[C@H]1C(=O)O (single isomer, unassigned) [246-A] | 18.3 |
| Cc1nc(-c2nnn(C)c2NC(=O)O[C@H](C)C23CC(C2)C3)ccc1C#CC1(CC(=O)O)CC1 [260-B] | 17.4 |

Same assay, conditions: Table 1; FLIPR method, CHO-K1 cells overexpressing hLPAR1; read-out: LPAR1 inhibitory activity IC50

| IC50 [nM] | Structure (SMILES) |
| --- | --- |
| 2.6 | Cc1nc(-c2nnn(C)c2NC(=O)O[C@H](C)c2ccccc2)ccc1C#C[C@@H]1CCCC[C@H]1C(=O)O (mixture of isomers) [027-A, trans-2-((2-methyl-6-(1-methyl-5-((((R)-1-phenylethoxy)carbonyl)amino)-1H-1,2,3-triazol-4-yl)pyridin-3-yl)ethynyl)cyclohexane-1-carboxylic acid] |
| 49.2 | Cc1nc(-c2nnn(C)c2NC(=O)O[C@H](C)c2ccccc2)ccc1C#C[C@@H]1CCCC[C@H]1C(=O)O (mixture of isomers) [027-B, trans-2-((2-methyl-6-(1-methyl-5-((((R)-1-phenylethoxy)carbonyl)amino)-1H-1,2,3-triazol-4-yl)pyridin-3-yl)ethynyl)cyclohexane-1-carboxylic acid] |
| 17.6 | Cc1nc(-c2nnn(C)c2NC(=O)O[C@H](C)c2ccccc2F)ccc1C#C[C@@H]1CCCC[C@H]1C(=O)O (mixture of isomers) [028-A, trans-2-((6-(5-((((R)-1-(2-fluorophenyl)ethoxy)carbonyl)amino)-1-methyl-1H-1,2,3-triazol-4-yl)-2-methylpyridin-3-yl)ethynyl)cyclohexane-1-carboxylic acid] |
| 60.4 | Cc1nc(-c2nnn(C)c2NC(=O)O[C@H](C)c2ccccc2F)ccc1C#C[C@@H]1CCCC[C@H]1C(=O)O (mixture of isomers) [028-B, trans-2-((6-(5-((((R)-1-(2-fluorophenyl)ethoxy)carbonyl)amino)-1-methyl-1H-1,2,3-triazol-4-yl)-2-methylpyridin-3-yl)ethynyl)cyclohexane-1-carboxylic acid] |
| 0.6 | Cc1nc(-c2nnn(C)c2NC(=O)O[C@H](C)c2ccccc2Cl)ccc1C#C[C@@H]1CCCC[C@H]1C(=O)O (mixture of isomers) [031-A, trans-2-((6-(5-((((R)-1-(2-chlorophenyl)ethoxy)carbonyl)amino)-1-methyl-1H-1,2,3-triazol-4-yl)-2-methylpyridin-3-yl)ethynyl)cyclohexane-1-carboxylic acid] |
| 0.2 | Cc1nc(-c2nnn(C)c2NC(=O)O[C@H](C)c2ccccc2Cl)ccc1C#C[C@@H]1CCCC[C@H]1C(=O)O (mixture of isomers) [031-B, trans-2-((6-(5-((((R)-1-(2-chlorophenyl)ethoxy)carbonyl)amino)-1-methyl-1H-1,2,3-triazol-4-yl)-2-methylpyridin-3-yl)ethynyl)cyclohexane-1-carboxylic acid] |
| 42.1 | CCC(F)(F)[C@@H](C)OC(=O)Nc1c(-c2ccc(C#C[C@@H]3CC[C@H]3C(=O)O)c(C)n2)nnn1C (mixture of isomers) [212-A, trans-2-((6-(5-(((((R)-3,3-difluoropentan-2-yl)oxy)carbonyl)amino)-1-methyl-1H-1,2,3-triazol-4-yl)-2-methylpyridin-3-yl)ethynyl)cyclobutane-1-carboxylic acid] |
| 48.2 | Cc1nc(-c2nnn(C)c2NC(=O)O[C@H](C)CC(C)(F)F)ccc1C#C[C@@H]1CC[C@H]1C(=O)O (mixture of isomers) [213-A, trans-2-((6-(5-(((((R)-4,4-difluoropentan-2-yl)oxy)carbonyl)amino)-1-methyl-1H-1,2,3-triazol-4-yl)-2-methylpyridin-3-yl)ethynyl)cyclobutane-1-carboxylic acid] |
| 3.3 | CCC(F)(F)[C@@H](C)OC(=O)Nc1c(-c2ccc(C#C[C@@H]3CCC[C@H]3C(=O)O)c(C)n2)nnn1C (mixture of isomers) [219-A, trans-2-((6-(5-(((((R)-3,3-difluoropentan-2-yl)oxy)carbonyl)amino)-1-methyl-1H-1,2,3-triazol-4-yl)-2-methylpyridin-3-yl)ethynyl)cyclopentane-1-carboxylic acid] |
| 19.8 | Cc1nc(-c2nnn(C)c2NC(=O)O[C@H](C)CC(C)(C)F)ccc1C#C[C@@H]1CCC[C@H]1C(=O)O (mixture of isomers) [244-A, trans-2-((6-(5-(((((R)-4-fluoro-4-methylpentan-2-yl)oxy)carbonyl)amino)-1-methyl-1H-1,2,3-triazol-4-yl)-2-methylpyridin-3-yl)ethynyl)cyclopentane-1-carboxylic acid] |
| 3.1 | Cc1nc(-c2nnn(C)c2NC(=O)O[C@H](C)CC2CC2)ccc1C#C[C@@H]1CC(F)(F)C[C@H]1C(=O)O (mixture of isomers) [compound 205, trans-2-((6-(5-(((((R)-1-cyclopropylpropan-2-yl)oxy)carbonyl)amino)-1-methyl-1H-1,2,3-triazol-4-yl)-2-methylpyridin-3-yl)ethynyl)-4,4-difluorocyclopentane-1-carboxylic acid] |
| 30.2 | CCCCN(C)C(=O)OCc1c(-c2ccc(C#C[C@@H]3CC(F)(F)C[C@H]3C(=O)O)c(C)n2)nnn1C (racemic) [compound 252] |
| 20.4 | Cc1nc(-c2nnn(C)c2COC(=O)N(C)CC2CCC2)ccc1C#CC1CC(F)(F)CC1C(=O)O (racemic) [compound 362] |
| 50.6 | Cc1nc(-c2nnn(C)c2NC(=O)OC(C)CC(C)(C)F)ccc1C#CC1CCC1C(=O)O (single isomer, unassigned) [306-A] |
| 53.6 | Cc1nc(-c2nnn(C)c2NC(=O)OC(C)CC(C)(C)F)ccc1C#CC1CCC1C(=O)O (single isomer, unassigned) [306-B] |
| 45.9 | CCC[C@@H](C)OC(=O)Nc1c(-c2ccc(C#CC3(CC(=O)O)CC3)c(C)n2)nnn1C [010-A] |
| 0.6 | Cc1nc(-c2nnn(C)c2NC(=O)OC(C)C2CCC2)ccc1C#CC1(CC(=O)O)CC1 (stereo not shown) [032-A, 2-(1-((6-(5-(((1-cyclobutylethoxy)carbonyl)amino)-1-methyl-1H-1,2,3-triazol-4-yl)-2-methylpyridin-3-yl)ethynyl)cyclopropyl)acetic acid] |
| 18.7 | Cc1nc(-c2nnn(C)c2NC(=O)OC(C)C2CCCC2)ccc1C#CC1(CC(=O)O)CC1 (stereo not shown) [092', 2-(1-((6-(5-(((1-cyclopentylethoxy)carbonyl)amino)-1-methyl-1H-1,2,3-triazol-4-yl)-2-methylpyridin-3-yl)ethynyl)cyclopropyl)acetic acid] |
| 20.2 | CCC(F)(F)[C@@H](C)OC(=O)Nc1c(-c2ccc(C#CC3(CC(=O)O)CC3)c(C)n2)nnn1C [207', (R)-2-(1-((6-(5-((((3,3-difluoropentan-2-yl)oxy)carbonyl)amino)-1-methyl-1H-1,2,3-triazol-4-yl)-2-methylpyridin-3-yl)ethynyl)cyclopropyl)acetic acid] |
| 7 | Cc1nc(-c2nnn(C)c2NC(=O)OC(C)C2CCC2)ccc1C#CC1CC(F)(F)CC1C(=O)O (stereo not shown) [242-A] |
| 66.3 | CCCCN(C)C(=O)OCc1c(-c2ccc(C#CC3(CC(=O)O)CC3)c(C)n2)nnn1C [compound 004, 2-(1-((6-(5-(((butyl(methyl)carbamoyl)oxy)methyl)-1-methyl-1H-1,2,3-triazol-4-yl)-2-methylpyridin-3-yl)ethynyl)cyclopropyl)acetic acid] |

| Structure (SMILES) | IC50 [nM] |
| --- | --- |
| Cc1nc(-c2nnn(C)c2NC(=O)OC(C)CC2CC2)ccc1C#CC1CCC1C(=O)O (single isomer, unassigned) [248-B] | 19.1 |

Same assay, conditions: read-out: LPAR1 inhibitory activity IC50; Table 1; FLIPR method, CHO-K1 cells overexpressing hLPAR1

| Structure (SMILES) | IC50 [nM] |
| --- | --- |
| Cc1nc(-c2nnn(C)c2NC(=O)OC(C)CCCF)ccc1C#CC1(CC(=O)O)CC1 (racemic) [compound 280] | 75.7 |
